{
  "source": "PubChem BioAssay (NCI)",
  "assay_in_all_cases": "NCI anticancer screen, dose series, 48 h",
  "key": {"[1]": {"system": "MCF7 breast"}, "[2]": {"system": "MDA-MB-435"}, "[3]": {"system": "SF-539 CNS"}, "[4]": {"system": "SK-MEL-28 melanoma"}, "[5]": {"system": "SK-MEL-5 melanoma"}, "[6]": {"system": "T-47D breast"}},
  "note": "“And” between values parts separate entries of the source, which are not always exact repeats. Equal entries are not always repeated.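 Grown in 96-well plates, cells were treated for 48 hours with each compound at five concentrations. Insufficient inhibition: endpoint recorded as highest concentration tested. GI50 = concentration required for 50% inhibition of growth. TGI marks complete inhibition of growth.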",
  "data": [
    {"smiles": "C[C@@H](NC(=O)Cc1cc(F)cc(F)c1)C(=O)N[C@@]1(C)N=C(c2ccccc2)c2ccccc2N(C)C1=O", "values": [
      {"measurement": "GI50", "setting": "[1]", "value": 36500, "unit": "nM"},
      {"measurement": "TGI", "setting": "[1]", "value": "> 100", "unit": "µM"},
      {"measurement": "GI50", "setting": "[2]", "value": 38900, "unit": "nM"},
      {"measurement": "TGI", "setting": "[2]", "value": "> 100", "unit": "µM"},
      {"measurement": "GI50", "setting": "[3]", "value": "> 56000", "unit": "nM"},
      {"measurement": "TGI", "setting": "[3]", "value": "> 100", "unit": "µM"},
      {"measurement": "GI50", "setting": "[4]", "value": "> 100000", "unit": "nM"},
      {"measurement": "TGI", "setting": "[4]", "value": "> 100", "unit": "µM"},
      {"measurement": "GI50", "setting": "[5]", "value": 35200, "unit": "nM"},
      {"measurement": "TGI", "setting": "[5]", "value": "> 100", "unit": "µM"},
      {"measurement": "TGI", "setting": "[6]", "value": "> 66.6", "unit": "µM"}
    ]},
    {"smiles": "O=C1c2ccccc2-c2cc3ccccc3c(=O)n21", "values": [
      {"measurement": "TGI", "setting": "[1]", "value": "> 100", "unit": "µM"},
      {"measurement": "TGI", "setting": "[2]", "value": "> 100", "unit": "µM"},
      {"measurement": "TGI", "setting": "[3]", "value": "> 100", "unit": "µM"},
      {"measurement": "TGI", "setting": "[4]", "value": "> 100", "unit": "µM"},
      {"measurement": "TGI", "setting": "[5]", "value": "> 100", "unit": "µM"},
      {"measurement": "TGI", "setting": "[6]", "value": "> 100", "unit": "µM"}
    ]},
    {"smiles": "COC(=O)[C@H](Cc1ccccc1)NC(=O)c1csc([C@@H](C[C@H](C(C)C)N(C)C(=O)[C@@H](NC(=O)[C@H]2CCCCN2C)C2CC2)OC(C)=O)n1", "values": [
      {"measurement": "GI50", "setting": "[1]", "value": 10.8, "unit": "nM"},
      {"measurement": "TGI", "setting": "[1]", "value": "> 25", "unit": "µM"},
      {"measurement": "GI50", "setting": "[2]", "value": 8.84, "unit": "nM"},
      {"measurement": "TGI", "setting": "[2]", "value": 0.0841, "unit": "µM"},
      {"measurement": "GI50", "setting": "[3]", "value": 37.6, "unit": "nM"},
      {"measurement": "TGI", "setting": "[3]", "value": 0.194, "unit": "µM"},
      {"measurement": "GI50", "setting": "[4]", "value": 1010, "unit": "nM"},
      {"measurement": "TGI", "setting": "[4]", "value": "> 25", "unit": "µM"},
      {"measurement": "GI50", "setting": "[5]", "value": 52.1, "unit": "nM"},
      {"measurement": "TGI", "setting": "[5]", "value": 3.37, "unit": "µM"},
      {"measurement": "GI50", "setting": "[6]", "value": "> 25", "unit": "µM"},
      {"measurement": "TGI", "setting": "[6]", "value": "> 25", "unit": "µM"}
    ]},
    {"smiles": "CCN(CC)CCC(=O)Nc1ccc(Cn2nnc3c2C(=O)c2nnn(Cc4ccc(NC(=O)CCN(CC)CC)cc4)c2C3=O)cc1", "values": [
      {"measurement": "GI50", "setting": "[1]", "value": 154, "unit": "nM"},
      {"measurement": "TGI", "setting": "[1]", "value": 0.373, "unit": "µM"},
      {"measurement": "GI50", "setting": "[2]", "value": 173, "unit": "nM"},
      {"measurement": "TGI", "setting": "[2]", "value": 0.324, "unit": "µM"},
      {"measurement": "GI50", "setting": "[3]", "value": 295, "unit": "nM"},
      {"measurement": "TGI", "setting": "[3]", "value": 0.821, "unit": "µM"},
      {"measurement": "GI50", "setting": "[4]", "value": 1090, "unit": "nM"},
      {"measurement": "TGI", "setting": "[4]", "value": 2.82, "unit": "µM"},
      {"measurement": "GI50", "setting": "[5]", "value": 485, "unit": "nM"},
      {"measurement": "TGI", "setting": "[5]", "value": 1.25, "unit": "µM"}
    ]},
    {"smiles": "COc1ccc(C[C@H]2C[C@@H](O)[C@@H](C)C/C=C/Cc3cccc(O)c3C(=O)O2)cn1", "values": [
      {"measurement": "GI50", "setting": "[1]", "value": 19500, "unit": "nM"},
      {"measurement": "TGI", "setting": "[1]", "value": 66.6, "unit": "µM"},
      {"measurement": "GI50", "setting": "[2]", "value": 19900, "unit": "nM"},
      {"measurement": "TGI", "setting": "[2]", "value": 46.6, "unit": "µM"},
      {"measurement": "GI50", "setting": "[3]", "value": 17900, "unit": "nM"},
      {"measurement": "TGI", "setting": "[3]", "value": 37.8, "unit": "µM"},
      {"measurement": "GI50", "setting": "[4]", "value": 27200, "unit": "nM"},
      {"measurement": "TGI", "setting": "[4]", "value": 78.7, "unit": "µM"},
      {"measurement": "GI50", "setting": "[5]", "value": 17600, "unit": "nM"},
      {"measurement": "TGI", "setting": "[5]", "value": 35.1, "unit": "µM"},
      {"measurement": "GI50", "setting": "[6]", "value": 33.1, "unit": "µM"},
      {"measurement": "TGI", "setting": "[6]", "value": "> 100", "unit": "µM"}
    ]},
    {"smiles": "CO[C@H]1C=C[C@]23c4cc5c(cc4CN(CC2O)[C@@H]3C1)OCO5", "note": "(stereo partly specified)", "values": [
      {"measurement": "TGI", "setting": "[2]", "value": 41.9, "unit": "µM"},
      {"measurement": "TGI", "setting": "[3]", "value": 14.6, "unit": "µM"},
      {"measurement": "TGI", "setting": "[4]", "value": 54.9, "unit": "µM"},
      {"measurement": "TGI", "setting": "[5]", "value": 17.8, "unit": "µM"},
      {"measurement": "TGI", "setting": "[6]", "value": 18.2, "unit": "µM"}
    ]},
    {"smiles": "COc1ccc2c(c1O)[C@@]13C=C(O)C(=O)C=C1[C@@H](C2)N(C)CC3", "values": [
      {"measurement": "TGI", "setting": "[1]", "value": "> 100", "unit": "µM"},
      {"measurement": "TGI", "setting": "[2]", "value": "> 100", "unit": "µM"},
      {"measurement": "TGI", "setting": "[4]", "value": "> 100", "unit": "µM"},
      {"measurement": "TGI", "setting": "[5]", "value": "> 100", "unit": "µM"},
      {"measurement": "TGI", "setting": "[6]", "value": "> 100", "unit": "µM"}
    ]},
    {"smiles": "CC1Cc2c(N(C)C)ncnc2N(C)c2ccc(Cl)cc21", "note": "(stereo unspecified)", "values": [
      {"measurement": "GI50", "setting": "[1]", "value": 1510, "unit": "nM"},
      {"measurement": "TGI", "setting": "[1]", "value": "> 100", "unit": "µM"},
      {"measurement": "GI50", "setting": "[2]", "value": 397, "unit": "nM"},
      {"measurement": "TGI", "setting": "[2]", "value": "> 100", "unit": "µM"},
      {"measurement": "GI50", "setting": "[3]", "value": 2930, "unit": "nM"},
      {"measurement": "TGI", "setting": "[3]", "value": 12.2, "unit": "µM"},
      {"measurement": "GI50", "setting": "[4]", "value": 10800, "unit": "nM"},
      {"measurement": "TGI", "setting": "[4]", "value": "> 100", "unit": "µM"},
      {"measurement": "GI50", "setting": "[5]", "value": 3650, "unit": "nM"},
      {"measurement": "TGI", "setting": "[5]", "value": 13.8, "unit": "µM"},
      {"measurement": "GI50", "setting": "[6]", "value": 6.56, "unit": "µM"},
      {"measurement": "TGI", "setting": "[6]", "value": "> 100", "unit": "µM"}
    ]},
    {"smiles": "Cn1c(=O)n(-c2ccc(C(C)(C)C#N)cc2)c2c3cc(-c4cnc5ccccc5c4)ccc3ncc21", "values": [
      {"measurement": "GI50", "setting": "[1]", "value": "< 10 nM and 5.62 nM"},
      {"measurement": "TGI", "setting": "[1]", "value": "12.2 µM and > 5.84 µM and > 100 µM"},
      {"measurement": "GI50", "setting": "[2]", "value": "< 10 nM and 5.72 nM"},
      {"measurement": "TGI", "setting": "[2]", "value": 0.0687, "unit": "µM"},
      {"measurement": "GI50", "setting": "[3]", "value": "< 10 nM and 5.03 nM"},
      {"measurement": "TGI", "setting": "[3]", "value": "0.0761 µM and 0.0316 µM and 0.118 µM"},
      {"measurement": "GI50", "setting": "[4]", "value": "16 nM and 32.8 nM and < 12.3 nM"},
      {"measurement": "GI50", "setting": "[5]", "value": "15.4 nM and 6.46 nM and < 15.2 nM"},
      {"measurement": "TGI", "setting": "[5]", "value": "0.0911 µM and 0.106 µM and 0.0859 µM"},
      {"measurement": "GI50", "setting": "[6]", "value": "< 0.01 µM and 0.0141 µM"},
      {"measurement": "TGI", "setting": "[6]", "value": "0.0488 µM and 0.0817 µM"}
    ]},
    {"smiles": "O=C1OC(c2ccc(O)cc2)(c2ccc(O)cc2)c2cccc3cccc1c23", "values": [
      {"measurement": "GI50", "setting": "[1]", "value": 1980, "unit": "nM"},
      {"measurement": "TGI", "setting": "[1]", "value": 25.9, "unit": "µM"},
      {"measurement": "GI50", "setting": "[2]", "value": 9040, "unit": "nM"},
      {"measurement": "TGI", "setting": "[2]", "value": 22.4, "unit": "µM"},
      {"measurement": "GI50", "setting": "[3]", "value": 15200, "unit": "nM"},
      {"measurement": "TGI", "setting": "[3]", "value": 29, "unit": "µM"},
      {"measurement": "GI50", "setting": "[4]", "value": 14300, "unit": "nM"},
      {"measurement": "TGI", "setting": "[4]", "value": 29.5, "unit": "µM"},
      {"measurement": "GI50", "setting": "[5]", "value": 16100, "unit": "nM"},
      {"measurement": "TGI", "setting": "[5]", "value": 31.3, "unit": "µM"},
      {"measurement": "GI50", "setting": "[6]", "value": 0.118, "unit": "µM"},
      {"measurement": "TGI", "setting": "[6]", "value": 12, "unit": "µM"}
    ]}
  ]
}
